{"source": "patent US20110245171A1", "about": "“REHYDRATION COMPOSITIONS COMPRISING EPIDERMAL GROWTH FACTOR (EGF)” (priority 2004, published 2011)", "key": {"[1]": {"system": "jejunal tissue from rabbits infected with attaching-effacing E. coli (RDEC-1)", "test": "Jejunal 3-O-methyl glucose transport in Ussing chambers", "set-up": "species or system rabbit", "protocol": "Rabbits infected with attaching-effacing E. coli (RDEC-1) were used (20). Briefly, experimental rabbits (400-600 g) were orally inoculated with 5×10^7 live E. coli in 1 mL 10% sodium bicarbonate. Controls received sodium bicarbonate only. Animals were housed individually in a level B containment room, fed commercial feed and given water ad libitum. Ten days post-infection, all animals were killed with an intra-peritoneal overdose of sodium pentabarbitone following anesthesia with halothane. A 20-cm segment of jejunum beginning 5 cm distal to the ligament of Treitz was then removed and rinsed with ice-cold Kreb's buffer. Both longitudinal and circular muscle layers were stripped from the underlying mucosa and four adjacent pieces of jejunal tissue mounted under short-circuited conditions in Ussing chambers. Both mucosal and serosal surfaces were bathed in 10 ml of oxygenated Kreb's buffer with 10 mM glucose added to the serosal surface to provide metabolic energy to the tissue, 10 mM mannitol added to the mucosal surface to osmotically balance the glucose solution, and 20 mM 3-O-methyl glucose added to both surfaces. Immediately after mounting, 10 μCi 3-O-methyl[^3H]glucose was added to either the serosal or mucosal surface and allowed to equilibrate for 20 min. 3-O-methyl glucose is a non-metabolized glucose analog. Unidirectional mucosal to serosal (Jms) and serosal to mucosal (Jsm) fluxes were then determined by measuring 3 consecutive 5 min flux intervals and an overall 15 min flux interval before and after the addition of 100 ng/ml human recombinant epidermal growth factor (rhEGF) (Austral Biologicals, San Ramon, Calif.) or vehicle to the mucosal reservoir. Net flux (Jnet) was calculated by subtracting the serosal to mucosal flux, Jsm, from the mucosal to serosal flux, Jms. Clinical symptoms were monitored including fecal shedding of the bacterium."}, "K88 positive E. coli": {"system": "K88 positive E. coli", "test": "Enteropathogenic E. coli infection in piglets, oral EGF", "format": "in vivo", "protocol": "An enteropathogenic Escherichia coli isolate obtained from Veterinary Pathology Laboratories (VPL), Edmonton, Alberta was utilized in these experiments. This strain was originally isolated from a piglet with diarrhea and is positive for Stb, Lt, and K88 (F4). This strain is referred to as K88 positive E. coli. Enteropathogenic E. coli infections produce primarily a malabsorptive diarrhea, although there is a smaller secretory component.\nBacteria were grown in LB™ broth (Difco Laboratories, Detroit, Mich.) and frozen on Microbank™ porous beads (Pro-Labs Diagnostics, Richmond Hill, ON) at −70° C. For each inoculum preparation, one bead was thawed and incubated in 20 ml sterile LB™ broth for 5 h at 37° C., 200 rpm. Then, the 20 ml starter culture was placed in 980 ml LB™ broth and incubated at 37° C. for 15 hours, 200 rpm. LB™ broth was aliquoted in 18 sterile polystyrene 50 ml tubes (Falcon), centrifuged at 3000 rpm (floor Sorval) for 10 minutes, and all pellets pooled and resuspended in 50 ml 10% […]-sterile PBS.\nInoculum: Piglets received late log phase 1×10^10 (counted by spectrophotometry, 600 nm, A=1.9) live K88 positive E. coli. Bacterial inoculum was delivered in 10% NaHCO3/sterile PBS (5 ml), followed by lactate Ringer's solution (5 ml). The inoculum (10 ml) was delivered via a 40 cm orogastric intubation tube connected to a 20 cc syringe. Total bacterial counts in inoculum were calculated via serial dilutions plated onto LB™ agar and incubated overnight at 37° C., 5% CO2.\nA pregnant sow was purchased from a local commercial supplier (Doug Hall, Airdrie, AB) approximately one week prior to due-date. The sow was housed at the University of Calgary farm in a farrowing pen. The sow was given free access to water and pig feed (Doug Hall, Airdrie, AB). Two-day old piglets were weight ranked and randomly assigned to each experimental group (see below), and treatment was initiated that day (Day-1). Inoculation with live K88 positive E. coli was carried out the following day (Day 0). […]"}, "[2]": {"system": "piglets with spontaneous neonatal diarrhea", "test": "Spontaneous neonatal diarrhea in piglets, oral EGF", "format": "in vivo", "from_the_text": "A pregnant sow was purchased from a local commercial supplier (Doug Hall, Airdrie, AB) approximately one week prior to due-date. The sow was housed at the University of Calgary farm in a farrowing pen. The sow was given free access to water and pig feed (Doug Hall, Airdrie, AB). Two-day old piglets were weight ranked and randomly assigned to each experimental group (see below), and treatment was initiated that day (Day 0) and animals assessed 24 hr later. […] Piglets with their sow were housed separately in contained animal facilities for the duration of the experiment at the University of Calgary farm. Housing was at 20° C., with approximate 8:16 h photoperiods.\nPiglets were assigned to one of the following experimental groups: 1) untreated animals gavaged orally with 5 mL sterile PBS daily starting on Day 0, and 2) EGF-treated, gavaged orally with rhEGF in 5 mL sterile PBS at a concentration of 100 μg/kg body weight daily starting on Day 0.\nThe study was terminated on Day 1. A total of 10 piglets were studied, 5 were given EGF, and 5 received vehicle (untreated).\nPiglets were checked daily for weight gain, production of diarrhea, and overall clinical condition (alertness, body posture, condition). In addition, daily fecal scoring was carried out twice daily (9:00 am, and 3:00 pm) as follows: 0=solid, formed stools, 1=soft stools with no perineal soiling, 2=non-bloody diarrhea with perineal soiling, 3=bloody diarrhea with perineal soiling.\nAll morning observations were performed between 7:00 am and 12:00 pm to avoid diurnal variations. One additional fecal scoring was carried out at 3:00 pm."}, "[3]": {"system": "pathogenic strains of Escherichia coli", "conditions": "in vitro, literature; cited from earlier work"}, "Salmonella typhimurium": {"system": "Salmonella typhimurium", "conditions": "in vitro, literature; cited from earlier work"}, "Cryptosporidium parvum": {"system": "Cryptosporidium parvum", "conditions": "in vitro, literature; cited from earlier work"}, "enteropathogenic E. coli": {"system": "enteropathogenic E. coli", "conditions": "literature; cited from earlier work"}, "C. parvum": {"system": "C. parvum", "conditions": "literature; cited from earlier work"}, "giardiasis": {"system": "giardiasis", "conditions": "compared to untreated animals, literature; cited from earlier work"}, "bacteria and protozoa": {"system": "bacteria and protozoa", "conditions": "literature; cited from earlier work"}, "[4]": {"system": "jejunal nutrient transport", "conditions": "cited from earlier work"}, "[5]": {"conditions": "infected tissue treated with EGF compared to controls"}, "[6]": {"conditions": "infected tissue, 10 days post-infection, 100 ng/ml rhEGF on mucosal surface"}}, "data": [{"substance": "EGF: 53-amino acid human epidermal growth factor of SEQ ID NO: 1; recombinant human EGF used in the experiments", "values": [{"measurement": "mucosal to serosal 3-O-methyl glucose transport", "setting": "[1]; [5]", "result": "did not differ"}, {"measurement": "net 3-O-methyl glucose transport", "setting": "[1]; [5]", "result": "did not differ"}, {"measurement": "mucosal to serosal flux of 3-O-methyl glucose", "setting": "[1]; [6]", "result": "significantly increased"}, {"measurement": "net flux of 3-O-methyl glucose", "setting": "[1]; [6]", "result": "significantly increased"}, {"measurement": "weight gain", "setting": "K88 positive E. coli; EGF-treated compared to untreated, over the course of the study", "result": "did not differ"}, {"measurement": "acceleration of return to normal fecal consistency", "setting": "K88 positive E. coli; compared to untreated animals (day 3 instead of day 4)", "result": "one day"}, {"measurement": "day by which fecal scores returned to normal (fecal score of 0 in all animals)", "setting": "K88 positive E. coli; rhEGF 100 μg/kg oral gavage daily from Day -1, infected Day 0, untreated: Day 4", "result": "≤ 3", "unit": "days"}, {"measurement": "fecal scores", "setting": "[2]; Day 1, one day after initiation of treatment, rhEGF 100 μg/kg oral, compared with vehicle", "result": "significantly (P<0.05) reduced"}, {"measurement": "animals that had died", "setting": "[2]; Day 1, 5 piglets given EGF, 2 untreated died", "result": 1}, {"measurement": "weight gain", "setting": "[2]; EGF compared to untreated", "result": "did not differ"}, {"measurement": "epithelial bacterial translocation and invasion", "setting": "[3]", "result": "inhibit"}, {"measurement": "epithelial bacterial translocation and invasion", "setting": "Salmonella typhimurium", "result": "inhibit"}, {"measurement": "epithelial colonization", "setting": "Cryptosporidium parvum", "result": "reduce"}, {"measurement": "bacterial colonization", "setting": "enteropathogenic E. coli", "result": "significantly inhibited"}, {"measurement": "diarrhea and reduced weight gain associated with the disease", "setting": "enteropathogenic E. coli", "result": "prevented"}, {"measurement": "epithelial damage", "setting": "enteropathogenic E. coli", "result": "reduced"}, {"measurement": "fecal oocyte passage", "setting": "C. parvum", "result": "decreased"}, {"measurement": "intestinal function", "setting": "giardiasis", "result": "enhanced"}, {"measurement": "trophozoite colonization", "setting": "giardiasis", "result": "inhibited"}, {"measurement": "anti-protozoal effect", "setting": "bacteria and protozoa", "result": "no direct"}, {"measurement": "bactericidal effect", "setting": "bacteria and protozoa", "result": "no direct"}, {"measurement": "SGLT1 content in the microsomal fraction", "setting": "[4]", "result": "decrease"}, {"measurement": "enterocyte glucose transport", "setting": "[4]", "result": "increase"}, {"measurement": "defect in glucose transport", "setting": "[4]; following administration of octreotide, literature", "result": "reverse"}, {"measurement": "BBMV SGLT1 content", "setting": "[4]; literature", "result": "significant increase"}, {"measurement": "amino acid transport", "setting": "[4]; literature", "result": "rapidly increases"}, {"measurement": "brush border (apical) surface area", "setting": "[4]; literature", "result": "increase"}, {"measurement": "glucose transport", "setting": "[4]; literature", "result": "rapidly increases"}, {"measurement": "ileal electroneutral NaCl absorption and brush-border Na+/H+ exchange", "setting": "[4]; literature", "result": "increase"}, {"measurement": "jejunal glutamine, alanine galactose and glycine transport", "setting": "[4]; literature", "result": "increase"}, {"measurement": "Vmax for glucose uptake into brush border membrane vesicles (BBMV)", "setting": "[4]; mucosal EGF, literature", "result": "increased"}, {"measurement": "Vmax for proline uptake into brush border membrane vesicles (BBMV)", "setting": "[4]; mucosal EGF, literature", "result": "increased"}]}, {"substance": "TGFα: related peptide that binds to the EGF receptor [reference compound]", "values": [{"measurement": "brush border (apical) surface area", "setting": "[4]; literature", "result": "had no effect"}, {"measurement": "glucose transport", "setting": "[4]; literature", "result": "had no effect"}, {"measurement": "small intestinal absorption", "setting": "[4]; some studies, literature", "result": "increase"}]}]}
